Laboratory results published in the Kinase Knowledgebase extract (Sharma et al. 2016).

These compounds were tested against CDK2 (UniProt P24941) (assay: Enzyme Assay).

| SMILES | IC50 [µM] |
| --- | --- |
| O=C1Nc2cccc(C3CCNCC3)c2/C1=C/c1[nH]cc2c1CCNC2=O | 0.06 |
| CN1CCc2c(c[nH]c2/C=C2\C(=O)Nc3cccc(C4CCNCC4)c32)C1=O | 0.26 |

Second part, the compound after the results:

| IC50 [µM] | SMILES |
| --- | --- |
| 0.75 | Cc1c(C(=O)N2CCCCC2)c[nH]c1/C=C1\C(=O)Nc2cccc(-c3ccncc3)c21 |
| 0.02 | Cc1c(C(=O)N2CCOCC2)c[nH]c1/C=C1\C(=O)Nc2cccc(C3CCNCC3)c21 |
| 1.96 | O=C1Nc2cccc(C3CCNCC3)c2/C1=C/c1cc2cc(OCCN3CCOCC3)ccc2[nH]1 |
| 0.03 | Cc1nc[nH]c1/C=C1\C(=O)Nc2cccc(-c3ccncc3)c21 |
| 0.02 | Cc1c(C(=O)N2CCCCC2)c[nH]c1/C=C1\C(=O)Nc2cccc(C3CCNCC3)c21 |
| 0.08 | O=C1Nc2cccc(-c3ccncc3)c2/C1=C/c1[nH]cc2c1CCOC2=O |
| 0.01 | Cc1nc[nH]c1/C=C1\C(=O)Nc2cccc(C3CCNCC3)c21 |
| 0.009 | O=C1Nc2cccc(C3CCNCC3)c2/C1=C/c1[nH]cc2c1CCOC2=O |

These compounds were tested against EGFR (UniProt P00533) (assay: not given).
EGFR, sequence (P00533 whole entry, looked up): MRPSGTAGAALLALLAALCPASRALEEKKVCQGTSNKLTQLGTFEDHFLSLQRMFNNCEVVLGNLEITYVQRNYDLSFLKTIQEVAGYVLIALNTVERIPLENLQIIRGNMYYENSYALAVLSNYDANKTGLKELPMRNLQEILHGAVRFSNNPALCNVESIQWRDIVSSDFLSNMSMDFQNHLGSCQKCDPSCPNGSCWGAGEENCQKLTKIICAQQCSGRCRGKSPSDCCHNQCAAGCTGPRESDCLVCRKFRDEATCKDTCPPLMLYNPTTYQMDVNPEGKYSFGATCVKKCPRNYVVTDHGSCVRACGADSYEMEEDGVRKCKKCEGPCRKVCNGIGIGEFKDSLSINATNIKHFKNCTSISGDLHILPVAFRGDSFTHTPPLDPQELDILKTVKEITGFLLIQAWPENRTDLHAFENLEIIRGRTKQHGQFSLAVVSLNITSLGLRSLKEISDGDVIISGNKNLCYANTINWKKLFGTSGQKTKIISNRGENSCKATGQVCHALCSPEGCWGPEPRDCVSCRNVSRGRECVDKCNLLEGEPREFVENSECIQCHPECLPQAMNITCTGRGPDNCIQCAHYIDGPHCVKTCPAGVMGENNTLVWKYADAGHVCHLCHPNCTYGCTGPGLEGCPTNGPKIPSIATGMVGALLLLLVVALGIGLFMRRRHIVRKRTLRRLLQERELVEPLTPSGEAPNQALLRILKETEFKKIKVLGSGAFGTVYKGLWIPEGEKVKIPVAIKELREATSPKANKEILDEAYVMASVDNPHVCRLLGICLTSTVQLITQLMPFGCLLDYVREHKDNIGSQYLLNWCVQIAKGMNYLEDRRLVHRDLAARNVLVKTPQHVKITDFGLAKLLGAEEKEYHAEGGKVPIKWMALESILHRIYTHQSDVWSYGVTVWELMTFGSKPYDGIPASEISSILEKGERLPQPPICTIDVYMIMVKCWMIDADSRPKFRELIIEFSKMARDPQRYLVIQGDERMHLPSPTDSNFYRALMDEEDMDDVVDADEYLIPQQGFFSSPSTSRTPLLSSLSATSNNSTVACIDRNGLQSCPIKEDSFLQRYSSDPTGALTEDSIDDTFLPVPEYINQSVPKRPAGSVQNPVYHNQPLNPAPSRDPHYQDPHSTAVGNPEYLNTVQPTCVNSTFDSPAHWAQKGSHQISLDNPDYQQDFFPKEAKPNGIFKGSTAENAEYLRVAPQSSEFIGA

| SMILES | IC50 [µM] |
| --- | --- |
| O=C1Nc2cccc(C3CCNCC3)c2/C1=C/c1cc2c([nH]1)CCCC2 | > 20 |
| Cc1[nH]c(/C=C2\C(=O)Nc3cccc(-c4cccnc4)c32)c(C)c1C(=O)N1CCN(C)CC1 | > 20 |
| Cc1[nH]c(/C=C2\C(=O)Nc3cccc(-c4cncc(C(=O)O)c4)c32)c(C)c1C(=O)N1CCN(C)CC1 | > 20 |
| Cc1[nH]c(/C=C2\C(=O)Nc3cccc(-c4ccccn4)c32)c(C)c1C(=O)N1CCN(C)CC1 | > 20 |
| CCOC(=O)c1[nH]c(/C=C2\C(=O)Nc3cccc(C4CCNCC4)c32)c(CCC(=O)O)c1C | > 20 |
| CCOC(=O)c1c(C)[nH]c(/C=C2\C(=O)Nc3cccc(-c4cncc(C(=O)O)c4)c32)c1CCCN1CCN(C)CC1 | > 20 |
| CCc1cc(CCC(=O)O)c(/C=C2\C(=O)Nc3cccc(-c4ccncc4)c32)[nH]1 | > 20 |
| Cc1cc(C(=O)O)c(/C=C2\C(=O)Nc3cccc(-c4ccncc4)c32)[nH]1 | > 20 |
| O=C(O)CCc1c(/C=C2\C(=O)Nc3cccc(-c4ccncc4)c32)[nH]c2c1CCCC2 | > 20 |
| CCOC(=O)c1c(C)[nH]c(/C=C2\C(=O)Nc3cccc(-c4ccncc4)c32)c1CCC(=O)O | > 20 |
| Cc1[nH]c(/C=C2\C(=O)Nc3cccc(C4CCNCC4)c32)c(C)c1CCC(=O)O | > 20 |
| Cc1cc(C(=O)O)[nH]c1/C=C1\C(=O)Nc2cccc(-c3ccncc3)c21 | > 20 |
| Cc1[nH]c(/C=C2\C(=O)Nc3cccc(C4CCNCC4)c32)c(C)c1CC(=O)O | > 20 |
| CCN(CC)CCNC(=O)c1c(C)[nH]c(/C=C2\C(=O)Nc3cccc(-c4cncc(C(=O)O)c4)c32)c1C | > 20 |
| CCc1cc(CCC(=O)O)c(/C=C2\C(=O)Nc3cccc(C4CCNCC4)c32)[nH]1 | > 20 |
| Cc1[nH]c(/C=C2\C(=O)Nc3cccc(-c4ccc(N)nc4)c32)c(C)c1C(=O)N1CCN(C)CC1 | > 20 |
| CCOC(=O)c1c(C)[nH]c(/C=C2\C(=O)Nc3cccc(-c4cncnc4)c32)c1CCCN1CCN(C)CC1 | > 20 |

| SMILES | IC50 [µM] |
| --- | --- |
| CCN(CC)CCNC(=O)c1c(C)[nH]c(/C=C2\C(=O)Nc3cccc(C4CCNCC4)c32)c1C | > 20 |
| CCOC(=O)c1c(C)[nH]c(/C=C2\C(=O)Nc3cccc(-c4ccc(N)nc4)c32)c1CCCN1CCN(C)CC1 | > 20 |
| Cc1cc(C)c(/C=C2\C(=O)Nc3cccc(-c4ccncc4)c32)[nH]1 | > 20 |
| Cc1[nH]c(/C=C2\C(=O)Nc3cccc(-c4cncnc4)c32)c(C)c1C(=O)N1CCN(C)CC1 | > 20 |
| Cc1[nH]c(/C=C2\C(=O)Nc3cccc(-c4ccncc4)c32)c(C)c1C(=O)N1CCN(C)CC1 | > 20 |
| Cc1[nH]c(/C=C2\C(=O)Nc3cccc(-c4nccs4)c32)c(C)c1C(=O)N1CCN(C)CC1 | > 20 |
| Cc1[nH]c(/C=C2\C(=O)Nc3cccc(-c4ccncc4)c32)c(C)c1CC(=O)O | > 20 |
| Cc1cc(C(=O)O)[nH]c1/C=C1\C(=O)Nc2cccc(C3CCNCC3)c21 | > 20 |
| O=C1Nc2cccc(C3CCNCC3)c2/C1=C/c1[nH]cc(C(=O)O)c1CCO | > 20 |
| CCOC(=O)c1c(C)[nH]c(/C=C2\C(=O)Nc3cccc(-c4ccccn4)c32)c1CCCN1CCN(C)CC1 | > 20 |
| O=C1Nc2cccc(-c3ccncc3)c2/C1=C/c1[nH]c2c(c1CCCN1CCOCC1)CCCC2 | > 20 |
| Cc1cc(CCC(=O)O)c(/C=C2\C(=O)Nc3cccc(-c4ccncc4)c32)[nH]1 | > 20 |
| Cc1cc(C(=O)O)c(/C=C2\C(=O)Nc3cccc(C4CCNCC4)c32)[nH]1 | > 20 |
| CCOC(=O)c1c(C)[nH]c(/C=C2\C(=O)Nc3cccc(-c4nccs4)c32)c1CCCN1CCN(C)CC1 | > 20 |
| O=C1Nc2cccc(C3CCNCC3)c2/C1=C/c1cc2ccccc2[nH]1 | > 20 |
| O=C1Nc2cccc(C3CCNCC3)c2/C1=C/c1[nH]c2c(c1CCCN1CCOCC1)CCCC2 | > 20 |

Now from value to compound:

| IC50 [µM] | SMILES |
| --- | --- |
| > 20 | Cc1ccc(/C=C2\C(=O)Nc3cccc(C4CCNCC4)c32)s1 |
| 16.3 | O=C1Nc2cccc(-c3ccncc3)c2/C1=C/c1cc2ccccc2[nH]1 |
| > 20 | O=C1Nc2cccc(C3CCNCC3)c2/C1=C/c1ccc(N2CCOCC2)cc1 |
| > 20 | Cc1[nH]c(/C=C2\C(=O)Nc3cccc(C4CCNCC4)c32)c(-c2ccccc2)c1C(=O)Nc1ccncc1 |
| > 20 | Cc1cc(C(=O)N2CCN(C)CC2)[nH]c1/C=C1\C(=O)Nc2cccc(C3CCNCC3)c21 |
| > 20 | Cc1c(C(=O)N2CCCCC2)c[nH]c1/C=C1\C(=O)Nc2cccc(-c3ccncc3)c21 |
| > 20 | CCOC(=O)c1c(C)[nH]c(/C=C2\C(=O)Nc3cccc(-c4cccnc4)c32)c1CCCN1CCN(C)CC1 |
| > 20 | Cc1[nH]c(/C=C2\C(=O)Nc3cccc(-c4ccncc4)c32)c(C)c1CCC(=O)O |
| > 20 | CCN(CC)CCNC(=O)c1c(C)[nH]c(/C=C2\C(=O)Nc3cccc(-c4ccncc4)c32)c1C |
| > 20 | Cc1c(C(=O)N2CCOCC2)c[nH]c1/C=C1\C(=O)Nc2cccc(C3CCNCC3)c21 |
| 17.9 | O=C1Nc2cccc(-c3ccncc3)c2/C1=C/c1cc2cc(OCCN3CCOCC3)ccc2[nH]1 |
| 19.1 | O=C1Nc2cccc(C3CCNCC3)c2/C1=C/c1cc2cc(OCCN3CCOCC3)ccc2[nH]1 |
| 14.7 | CCOC(=O)c1[nH]c(/C=C2\C(=O)Nc3cccc(C4CCNCC4)c32)c2c1CCCC2 |
| > 20 | Cc1nc[nH]c1/C=C1\C(=O)Nc2cccc(-c3ccncc3)c21 |
| > 20 | Cc1c(C(=O)N2CCCCC2)c[nH]c1/C=C1\C(=O)Nc2cccc(C3CCNCC3)c21 |
| > 20 | O=C1Nc2cccc(-c3ccncc3)c2/C1=C/c1[nH]cc2c1CCOC2=O |
| > 20 | Cc1nc[nH]c1/C=C1\C(=O)Nc2cccc(C3CCNCC3)c21 |
| > 20 | O=C1Nc2cccc(C3CCNCC3)c2/C1=C/c1[nH]cc2c1CCOC2=O |
